Measurements reported in PubChem BioAssay AID1963969 (Molecular Pharmacology Branch, DTP, NCI, 2024).
Several values for one entry are separate records, joined by “and”; a condition that tells them apart may be missing. Equal values may be shown once.

System: 817829-284-R-J1-PDC multi-cell spheroid viability
Test: Anticancer human tumor 817829-284-R-J1-PDC patient-derived colon adenocarcinoma cell line growth inhibition [PI3K]
Details: for viability, T/C: stronger effect = lower value; active means viability on the fitted dose curve at most 10% of control; inactive means the rest
Outline: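 Multi-cell spheroids combine tumor cells with HUVEC and human MSCs, treated with targeted agents alone or with inavolisib, alpelisib, duvelisib or copanlisib. Concentrations fall in half-log steps from at or near clinical Cmax, or from 10 microM where Cmax is unknown; viability read-out.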
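Further: spheroids exposed to agents for seven days before readout.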
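Wherever viability, T/C is given: percent of vehicle DMSO control viability which is 100%.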

C=CC(=O)N1CCN(c2nc(=O)n(-c3c(C)ccnc3C(C)C)c3nc(-c4c(O)cccc4F)c(F)cc23)C(C)C1 (centres undefined) + Cc1nc(NC(=O)N2CCCC2C(N)=O)sc1-c1ccnc(C(C)(C)C(F)(F)F)c1
> 10 µM: IC50 (curve of first compound, second compound 0.0316 µM) | IC50 (curve of first compound, second compound 3.16 µM)
5.98 µM: IC50 (curve of first compound, second compound 0.1 µM)
6.27 µM: IC50 (curve of first compound, second compound 1 µM)
0.0565 µM: IC50 (curve of first compound, second compound 10 µM)
6.17 µM: IC50 (curve of first compound, second compound 0.316 µM)
inactive: viability, T/C (second compound 0.0316 µM, first compound 0.0316 µM) 75.1% | viability, T/C (second compound 0.0316 µM, first compound 0.1 µM) 75.8% | viability, T/C (second compound 0.0316 µM, first compound 0.316 µM) 114% | viability, T/C (second compound 0.0316 µM, first compound 1 µM) 77% | viability, T/C (second compound 0.0316 µM, first compound 3.16 µM) 91% | viability, T/C (second compound 0.0316 µM, first compound 10 µM) 54.7% | viability, T/C (second compound 0.1 µM, first compound 0.0316 µM) 68.7% | viability, T/C (second compound 0.1 µM, first compound 0.1 µM) 70.2% | viability, T/C (second compound 0.1 µM, first compound 0.316 µM) 68.1% | viability, T/C (second compound 0.1 µM, first compound 1 µM) 53.5% | viability, T/C (second compound 0.1 µM, first compound 3.16 µM) 91.9% | viability, T/C (second compound 0.1 µM, first compound 10 µM) 33.6% | viability, T/C (second compound 0.316 µM, first compound 0.0316 µM) 80.1% | viability, T/C (second compound 0.316 µM, first compound 0.1 µM) 63.8% | viability, T/C (second compound 0.316 µM, first compound 0.316 µM) 95.7% | viability, T/C (second compound 0.316 µM, first compound 1 µM) 55.7% | viability, T/C (second compound 0.316 µM, first compound 3.16 µM) 66% | viability, T/C (second compound 0.316 µM, first compound 10 µM) 41.2% | viability, T/C (second compound 1 µM, first compound 0.0316 µM) 81.5% | viability, T/C (second compound 1 µM, first compound 0.1 µM) 65.3% | viability, T/C (second compound 1 µM, first compound 0.316 µM) 84.3% | viability, T/C (second compound 1 µM, first compound 1 µM) 63.1% | viability, T/C (second compound 1 µM, first compound 3.16 µM) 92.3% | viability, T/C (second compound 1 µM, first compound 10 µM) 31.4% | viability, T/C (second compound 3.16 µM, first compound 0.0316 µM) 71.2% | viability, T/C (second compound 3.16 µM, first compound 0.1 µM) 61.8% | viability, T/C (second compound 3.16 µM, first compound 0.316 µM) 55.3% | viability, T/C (second compound 3.16 µM, first compound 1 µM) 75.8% | viability, T/C (second compound 3.16 µM, first compound 3.16 µM) 85.2% | viability, T/C (second compound 3.16 µM, first compound 10 µM) 50.9% | viability, T/C (second compound 10 µM, first compound 0.0316 µM) 51.5% | viability, T/C (second compound 10 µM, first compound 0.1 µM) 49.2% | viability, T/C (second compound 10 µM, first compound 0.316 µM) 40.8% | viability, T/C (second compound 10 µM, first compound 1 µM) 51.6% | viability, T/C (second compound 10 µM, first compound 3.16 µM) 51.1% | viability, T/C (second compound 10 µM, first compound 10 µM) 37.4%

Cn1cnc2c(F)c(Nc3ccc(Br)cc3Cl)c(C(=O)NOCCO)cc21
inactive: viability, T/C (compound 0.00949 µM) 87.3% and 90.1% | viability, T/C (compound 0.03 µM) 70.7% and 64.5% | viability, T/C (compound 0.0949 µM) 65% and 73.3% | viability, T/C (compound 0.3 µM) 62.5% and 52.7% | viability, T/C (compound 0.949 µM) 55.5% and 55.6% | viability, T/C (compound 3 µM) 33.4% and 21.9%
0.901 µM and 0.649 µM: IC50 (curve of compound)
